{"source": "patent US9765092B2", "about": "“Tricyclic piperidine compounds” (ACTELION PHARMACEUTICALS LTD, priority 2013, dated 2017)", "target": "human TPH1 (Homo sapiens (Human), UniProt P17752)", "sequence (P17752 whole entry)": "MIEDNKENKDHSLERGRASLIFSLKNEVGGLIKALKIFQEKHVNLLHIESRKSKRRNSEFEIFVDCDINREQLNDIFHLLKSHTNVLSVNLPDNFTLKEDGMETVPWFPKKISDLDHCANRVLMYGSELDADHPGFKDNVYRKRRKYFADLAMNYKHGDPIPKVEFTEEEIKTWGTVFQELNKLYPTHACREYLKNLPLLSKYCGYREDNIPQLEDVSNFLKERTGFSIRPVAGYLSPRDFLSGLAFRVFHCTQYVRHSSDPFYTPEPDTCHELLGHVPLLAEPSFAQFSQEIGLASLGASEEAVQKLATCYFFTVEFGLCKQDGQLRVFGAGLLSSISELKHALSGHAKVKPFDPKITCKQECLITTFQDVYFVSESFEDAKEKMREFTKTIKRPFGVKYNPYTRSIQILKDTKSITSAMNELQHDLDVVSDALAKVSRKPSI", "assay": "Biochemical in vitro assay using fluorescence readout (TPH1 inhibition)", "key": {"[1]": {"settings": "human TPH1, fluorescence readout"}, "[2]": {"settings": "full length human TPH1, 40 μM L-tryptophan, 15° C., 60 minutes, fluorescence at 540 nm, mean if determined several times"}}, "data": [{"molecule": "CCc1nc(NS(C)(=O)=O)ncc1OCC(=O)N1CCc2nc3sc(C)nn3c2C1c1sc(C)nc1C", "note": "(stereo not drawn) [Example 1.68.9, N-(5-(2-(5-(2,4-dimethylthiazol-5-yl)-2-methyl-7,8-dihydro-[1,3,4]thiadiazolo[2′,3′:2,3]imidazo[4,5-c]pyridin-6(5H)-yl)-2-oxoethoxy)-4-ethylpyrimidin-2-yl)methanesulfonamide]", "values": [{"measurement": "IC50", "setting": "[1]", "result": 66, "unit": "nM"}]}, {"molecule": "Cc1nn2c3c(nc2s1)CCN(C(=O)COc1ccc(N2CCOCC2)nc1Cl)C3c1csc(CN(C)C)c1", "note": "(stereo not drawn) [Example 1.69.1, 2-((2-Chloro-6-morpholinopyridin-3-yl)oxy)-1-(5-(5-((dimethylamino)-methyl)thiophen-3-yl)-2-methyl-7,8-dihydro-[1,3,4]thiadiazolo[2′,3′:2,3]imidazo[4,5-c]pyridin-6(5H)-yl)ethanone]", "values": [{"measurement": "IC50", "setting": "[2]", "result": 51, "unit": "nM"}]}, {"molecule": "Cc1nn2c3c(nc2s1)CCN(C(=O)COc1ccc(N2CCOCC2)nc1Cl)C3c1sc(-c2nnn[nH]2)cc1F", "note": "(stereo not drawn) [Example 1.70.1, 2-((2-Chloro-6-morpholinopyridin-3-yl)oxy)-1-(5-(3-fluoro-5-(1H-tetrazol-5-yl)thiophen-2-yl)-2-methyl-7,8-dihydro-[1,3,4]thiadiazolo[2′,3′:2,3]imidazo-[4,5-c]pyridin-6(5H)-yl)ethanone]", "values": [{"measurement": "IC50", "setting": "[2]", "result": 13, "unit": "nM"}]}, {"molecule": "CCc1nc(C(=O)NC2CC2)ccc1OCC(=O)N1CCc2nc3sc(C)nn3c2C1c1sccc1F", "note": "(stereo not drawn) [Example 1.71.1, N-cyclopropyl-6-ethyl-5-(2-(5-(3-fluorothiophen-2-yl)-2-methyl-7,8-dihydro-[1,3,4]thiadiazolo[2′,3′:2,3]-imidazo[4,5-c]pyridin-6(5H)-yl)-2-oxoethoxy)picolinamide]", "values": [{"measurement": "IC50", "setting": "[1]", "result": 12, "unit": "nM"}]}, {"molecule": "CCc1nc(NS(C)(=O)=O)ccc1OCC(=O)N1CCc2nc3sc(C)nn3c2C1c1sccc1F", "note": "(stereo not drawn) [Example 1.71.2, N-(6-ethyl-5-(2-(5-(3-fluorothiophen-2-yl)-2-methyl-7,8-dihydro-[1,3,4]thiadiazolo[2′,3′:2,3]imidazo[4,5-c]pyridin-6(5H)-yl)-2-oxoethoxy)pyridin-2-yl)methanesulfonamide]", "values": [{"measurement": "IC50", "setting": "[1]", "result": 7, "unit": "nM"}]}, {"molecule": "CCc1nc(C)c(C2c3c(nc4sc(C)nn34)CCN2C(=O)COc2ccc(NS(C)(=O)=O)nc2Cl)s1", "note": "(stereo not drawn) [Example 1.72.1, N-(6-chloro-5-(2-(5-(2-ethyl-4-methylthiazol-5-yl)-2-methyl-7,8-dihydro-[1,3,4]thiadiazolo[2′,3′:2,3]imidazo-[4,5-c]pyridin-6(5H)-yl)-2-oxoethoxy)pyridin-2-yl)methanesulfonamide]", "values": [{"measurement": "IC50", "setting": "[1]", "result": 22, "unit": "nM"}]}, {"molecule": "Cc1nn2c3c(nc2s1)CCN(C(=O)COc1ccc(NS(C)(=O)=O)nc1Cl)C3c1sc(C(C)C)nc1C", "note": "(stereo not drawn) [Example 1.73.1, N-(6-chloro-5-(2-(5-(2-isopropyl-4-methylthiazol-5-yl)-2-methyl-7,8-dihydro-[1,3,4]thiadiazolo[2′,3′:2,3]imidazo[4,5-c]pyridin-6(5H)-yl)-2-oxoethoxy)pyridin-2-yl)methanesulfonamide]", "values": [{"measurement": "IC50", "setting": "[1]", "result": 60, "unit": "nM"}]}, {"molecule": "CCc1nc(NS(C)(=O)=O)ccc1OCC(=O)N1CCc2nc3sc(C)nn3c2C1c1cc(F)c(C)cc1F", "note": "(stereo not drawn) [Example 1.74.1, N-(5-(2-(5-(2,5-difluoro-4-methylphenyl)-2-methyl-7,8-dihydro-[1,3,4]thiadiazolo[2′,3′:2,3]imidazo[4,5-c]pyridin-6(5H)-yl)-2-oxoethoxy)-6-ethylpyridin-2-yl)methanesulfonamide]", "values": [{"measurement": "IC50", "setting": "[1]", "result": 25, "unit": "nM"}]}, {"molecule": "Cc1nn2c3c(nc2s1)CCN(C(=O)COc1ccc(NS(C)(=O)=O)nc1Cl)C3c1cc(F)c(C)cc1F", "note": "(stereo not drawn) [Example 1.74.2, N-(6-chloro-5-(2-(5-(2,5-difluoro-4-methylphenyl)-2-methyl-7,8-dihydro-[1,3,4]thiadiazolo[2′,3′:2,3]imidazo[4,5-c]pyridin-6(5H)-yl)-2-oxoethoxy)pyridin-2-yl)methanesulfonamide]", "values": [{"measurement": "IC50", "setting": "[1]", "result": 18, "unit": "nM"}]}, {"molecule": "Cc1nn2c3c(nc2s1)CCN(C(=O)COc1ccc(NS(C)(=O)=O)nc1Cl)C3c1ncc(F)cc1C", "note": "(stereo not drawn) [Example 1.75.1, N-(6-chloro-5-(2-(5-(5-fluoro-3-methylpyridin-2-yl)-2-methyl-7,8-dihydro-[1,3,4]thiadiazolo[2′,3′:2,3]imidazo[4,5-c]pyridin-6(5H)-yl)-2-oxoethoxy)pyridin-2-yl)methanesulfonamide]", "values": [{"measurement": "IC50", "setting": "[1]", "result": 9, "unit": "nM"}]}, {"molecule": "Cc1nn2c3c(nc2s1)CCN(C(=O)COc1ccc(NS(C)(=O)=O)nc1Cl)C3c1sc(C(F)(F)F)nc1C", "note": "(stereo not drawn) [Example 1.76.1, N-(6-chloro-5-(2-(2-methyl-5-(4-methyl-2-(trifluoromethyl)thiazol-5-yl)-7,8-dihydro-[1,3,4]thiadiazolo[2′,3′:2,3]imidazo[4,5-c]pyridin-6(5H)-yl)-2-oxoethoxy)pyridin-2-yl)methanesulfonamide]", "values": [{"measurement": "IC50", "setting": "[1]", "result": 20, "unit": "nM"}]}, {"molecule": "Cc1nn2c3c(nc2s1)CCN(C(=O)COc1ccc(NS(C)(=O)=O)nc1Cl)C3c1ccc(OC(F)(F)F)cc1F", "note": "(stereo not drawn) [Example 1.77.1, N-(6-chloro-5-(2-(5-(2-fluoro-4-(trifluoromethoxy)phenyl)-2-methyl-7,8-dihydro-[1,3,4]thiadiazolo[2′,3′:2,3]imidazo[4,5-c]pyridin-6(5H)-yl)-2-oxoethoxy)pyridin-2-yl)methanesulfonamide]", "values": [{"measurement": "IC50", "setting": "[1]", "result": 13, "unit": "nM"}]}, {"molecule": "Cc1nn2c3c(nc2s1)CCN(C(=O)COc1ccc(C(=O)NC2CC2)nc1Cl)C3c1ccc(OC(F)(F)F)cc1F", "note": "(stereo not drawn) [Example 1.77.2, 6-chloro-N-cyclopropyl-5-(2-(5-(2-fluoro-4-(trifluoromethoxy)phenyl)-2-methyl-7,8-dihydro-[1,3,4]thiadiazolo[2′,3′:2,3]imidazo[4,5-c]pyridin-6(5H)-yl)-2-oxoethoxy)picolinamide]", "values": [{"measurement": "IC50", "setting": "[1]", "result": 28, "unit": "nM"}]}, {"molecule": "COC(=O)c1ccc(C2c3c(nc4sc(C)nn34)CCN2C(=O)COc2ccc(NS(C)(=O)=O)nc2Cl)c(F)c1", "note": "(stereo not drawn) [Example 1.79.1, methyl-4-(6-(2-((2-chloro-6-(methylsulfonamido)pyridin-3-yl)oxy)acetyl)-2-methyl-5,6,7,8-tetrahydro-[1,3,4]thiadiazolo[2′,3′:2,3]imidazo[4,5-c]pyridin-5-yl)-3-fluorobenzoate]", "values": [{"measurement": "IC50", "setting": "[1]", "result": 17, "unit": "nM"}]}, {"molecule": "COC(=O)c1ccc(C2c3c(nc4sc(C)nn34)CCN2C(=O)COc2ccc(C(=O)NC3CC3)nc2Cl)c(F)c1", "note": "(stereo not drawn) [Example 1.79.2, methyl-4-(6-(2-((2-chloro-6-(cyclopropylcarbamoyl)pyridin-3-yl)oxy)acetyl)-2-methyl-5,6,7,8-tetrahydro-[1,3,4]thiadiazolo[2′,3′:2,3]imidazo[4,5-c]pyridin-5-yl)-3-fluorobenzoate]", "values": [{"measurement": "IC50", "setting": "[1]", "result": 21, "unit": "nM"}]}, {"molecule": "Cc1nn2c3c(nc2s1)CCN(C(=O)COc1ccc(NS(C)(=O)=O)nc1Cl)C3c1ccc(C(C)(C)O)cc1F", "note": "(stereo not drawn) [Example 1.80.1, N-(6-chloro-5-(2-(5-(2-fluoro-4-(2-hydroxypropan-2-yl)phenyl)-2-methyl-7,8-dihydro-[1,3,4]thiadiazolo[2′,3′:2,3]imidazo[4,5-c]pyridin-6(5H)-yl)-2-oxoethoxy)pyridin-2-yl)methanesulfonamide]", "values": [{"measurement": "IC50", "setting": "[1]", "result": 98, "unit": "nM"}]}, {"molecule": "Cc1nn2c3c(nc2s1)CCN(C(=O)COc1ccc(C(=O)NC2CC2)nc1Cl)C3c1ccc(C(C)(C)O)cc1F", "note": "(stereo not drawn) [Example 1.80.2, 6-chloro-N-cyclopropyl-5-(2-(5-(2-fluoro-4-(2-hydroxypropan-2-yl)phenyl)-2-methyl-7,8-dihydro-[1,3,4]thiadiazolo[2′,3′:2,3]imidazo[4,5-c]pyridin-6(5H)-yl)-2-oxoethoxy)picolinamide]", "values": [{"measurement": "IC50", "setting": "[1]", "result": 65, "unit": "nM"}]}, {"molecule": "COC(C)(C)c1ccc(C2c3c(nc4sc(C)nn34)CCN2C(=O)COc2ccc(C(=O)NC3CC3)nc2Cl)c(F)c1", "note": "(stereo not drawn) [Example 1.81.1, 6-chloro-N-cyclopropyl-5-(2-(5-(2-fluoro-4-(2-methoxypropan-2-yl)phenyl)-2-methyl-7,8-dihydro-[1,3,4]thiadiazolo[2′,3′:2,3]imidazo[4,5-c]pyridin-6(5H)-yl)-2-oxoethoxy)picolinamide]", "values": [{"measurement": "IC50", "setting": "[1]", "result": 27, "unit": "nM"}]}, {"molecule": "COC(C)(C)c1ccc(C2c3c(nc4sc(C)nn34)CCN2C(=O)COc2ccc(NS(C)(=O)=O)nc2Cl)c(F)c1", "note": "(stereo not drawn) [Example 1.81.2, N-(6-chloro-5-(2-(5-(2-fluoro-4-(2-methoxypropan-2-yl)phenyl)-2-methyl-7,8-dihydro-[1,3,4]thiadiazolo[2′,3′:2,3]imidazo[4,5-c]pyridin-6(5H)-yl)-2-oxoethoxy)pyridin-2-yl)methanesulfonamide]", "values": [{"measurement": "IC50", "setting": "[1]", "result": 132, "unit": "nM"}]}, {"molecule": "COCc1ccc(C2c3c(nc4sc(C)nn34)CCN2C(=O)COc2ccc(NS(C)(=O)=O)nc2Cl)c(F)c1", "note": "(stereo not drawn) [Example 1.82.1, N-(6-chloro-5-(2-(5-(2-fluoro-4-(methoxymethyl)phenyl)-2-methyl-7,8-dihydro-[1,3,4]thiadiazolo[2′,3′:2,3]imidazo[4,5-c]pyridin-6(5H)-yl)-2-oxoethoxy)pyridin-2-yl)methanesulfonamide]", "values": [{"measurement": "IC50", "setting": "[1]", "result": 17, "unit": "nM"}]}, {"molecule": "COCc1ccc(C2c3c(nc4sc(C)nn34)CCN2C(=O)COc2ccc(C(=O)NC3CC3)nc2Cl)c(F)c1", "note": "(stereo not drawn) [Example 1.82.2, 6-chloro-N-cyclopropyl-5-(2-(5-(2-fluoro-4-(methoxymethyl)phenyl)-2-methyl-7,8-dihydro-[1,3,4]thiadiazolo[2′,3′:2,3]imidazo[4,5-c]pyridin-6(5H)-yl)-2-oxoethoxy)picolinamide]", "values": [{"measurement": "IC50", "setting": "[1]", "result": 14, "unit": "nM"}]}, {"molecule": "COCCOc1ccc(C2c3c(nc4sc(C)nn34)CCN2C(=O)COc2ccc(C(=O)NC3CC3)nc2Cl)c(F)c1", "note": "(stereo not drawn) [Example 1.83.1, 6-chloro-N-cyclopropyl-5-(2-(5-(2-fluoro-4-(2-methoxyethoxy)phenyl)-2-methyl-7,8-dihydro-[1,3,4]thiadiazolo[2′,3′:2,3]imidazo[4,5-c]pyridin-6(5H)-yl)-2-oxoethoxy)picolinamide]", "values": [{"measurement": "IC50", "setting": "[1]", "result": 24, "unit": "nM"}]}, {"molecule": "COCCOc1ccc(C2c3c(nc4sc(C)nn34)CCN2C(=O)COc2ccc(NS(C)(=O)=O)nc2Cl)c(F)c1", "note": "(stereo not drawn) [Example 1.83.2, N-(6-chloro-5-(2-(5-(2-fluoro-4-(2-methoxyethoxy)phenyl)-2-methyl-7,8-dihydro-[1,3,4]thiadiazolo[2′,3′:2,3]imidazo[4,5-c]pyridin-6(5H)-yl)-2-oxoethoxy)pyridin-2-yl)methanesulfonamide]", "values": [{"measurement": "IC50", "setting": "[1]", "result": 18, "unit": "nM"}]}, {"molecule": "Cc1nn2c3c(nc2s1)CCN(C(=O)COc1ccc(C(=O)NC2CC2)nc1Cl)C3c1ccc(OCCO)cc1F", "note": "(stereo not drawn) [Example 1.84.1, 6-chloro-N-cyclopropyl-5-(2-(5-(2-fluoro-4-(2-hydroxyethoxy)phenyl)-2-methyl-7,8-dihydro-[1,3,4]thiadiazolo[2′,3′:2,3]imidazo[4,5-c]pyridin-6(5H)-yl)-2-oxoethoxy)picolinamide]", "values": [{"measurement": "IC50", "setting": "[2]", "result": 14, "unit": "nM"}]}]}
